Read-outs that look alike come from different tables or passages of the source.
Experiments:
HL-60 cells = assay: Induction of HL-60 Cell Differentiation (NBT reduction); format: cell-based; conditions: 3 days, relative to maximal differentiation with 100-1000 nM calcitriol, mean of 3 wells, 4320 min, read-out: ED50, concentration leading to 50% of maximal differentiation
Experimental: Induction of HL-60 Cell Differentiation
The induction of differentiation of HL-60 cells was assayed by measuring their oxidative burst potential via the reduction of nitrobluetetrazolium (NBT).
HL-60 cells (30,000 cells in 90 μl of supplemented RPMI medium) were seeded into flat-bottomed microliter wells. Immediately after seeding, 10 μl of test compounds listed below in Table II diluted in supplemented RPMI medium were added to the wells to yield final concentrations of between 10^-11 and 10^-6 M (starting from stock solutions of 10^-2 M in ethanol, stored at -20° C. and protected from light). After 3 days, medium was removed from the wells with a multichannel pipette and replaced with 100 μl of NBT solution (1 mg/ml in phosphate buffered saline with 200 nM phorbol myristate acetate). Following an additional hour incubation at 37° C. the NBT solution was removed and 100 μl of 10% sodium dodecyl sulfate in 0.01N HCl was added. The amount of the reduced NBT was quantified photometrically at 540 nm using an automated plate reader. The mean of 3 wells was calculated. […] Values were expressed as percent of maximal differentiation achieved with 100-1000 nM calcitriol in the same experiment.

Sebaceous cells = assay: Inhibition of Sebaceous Cell Proliferation; format: cell-based, human; conditions: read-out: ED50, amount of compound necessary to inhibit the proliferation of the sebaceous cells by 50%
Experimental: Inhibition of Sebaceous Cell Proliferation
Sebaceous cells were isolated from adult human sebaceous glands, derived from facial skin removed during cosmetic surgery. This method is described in an article by Doran et al. in J. Invest. Dermatol. 96:341-348 (1991).
The cells were cultured in Iscove's medium containing 10% fetal calf-serum and 4 μg/ml dexamethasone on a layer of growth-arrested 3T3 mouse fibroblasts.
Cells were plated in medium without the test compound and then given the compound in fresh medium 24-48 hours after the initial plating. The cultures were given fresh medium, containing the test compound, every 48 hours. On the day of harvesting, the cultures were rinsed with 0.03% ethylenediamine tetraacetic acid (EDTA) in phosphate buffered saline (PBS), to remove only the 3T3 fibroblasts. The remaining sebocyte colonies were incubated in 0.05% trypsin/0/03% EDTA to create a single cell suspension of sebocytes. The cells were suspended, mixed vigorously to prepare a single cell suspension, and counted in a hemocytometer.
All compounds were handled in the following manner. Stock solutions were made up as 10-^2 M solutions in degassed 100% ethanol and stored at -20° C. in the dark. Solutions were never used after storage of more than a month. During experimental use the solutions, which had been aliquoted, were thawed once and used by diluting directly into complete medium to the appropriate concentration.
The results are summarized in Table III below as the amount of compound necessary to inhibit the proliferation of the sebaceous cells by 50% (ED50) in μM as compared to a control, vehicle treated only, culture.

[1] = system: γ-Interferon Release in Human T-cells; assay: Inhibition of γ-Interferon Release in Human T-cells (ELISA); format: cell-based; conditions: PHA-stimulated human lymphocytes, IFN-γ by ELISA, days 3 and 4, read-out: IC50, concentration leading to 50% of control values (IFN-γ)
Experimental: Inhibition of γ-Interferon Release in Human T-cells
(§1) Mononuclear cells were isolated from venous blood of healthy donors by centrifugation of buffy coat leucocytes atop Ficoll-Paque. […] 100 μl of this cell suspension were seeded into flat-bottom microtiter wells and stimulated with 1 μg/ml of the T-cell specific mitogen phytohemagglutinine (PHA). Immediately after seeding, the test compounds listed below in Table IV were added to yield final concentrations of between 1×10^-11 M-1×10^-6 M. All tests were run in the quadruplicates.
On days 3 and 4, medium was removed from the wells and the content of IFN-γ was analyzed by ELISA. Values are expressed as percent of controls (samples without test compound).

Human T-cell = assay: Inhibition of Human T-cell Proliferation (3H-thymidine); format: cell-based; conditions: PHA-stimulated human lymphocytes, 3H-thimidine after 3 and 4 days, read-out: IC50, concentration leading to 50% of control values (T-cell proliferation)
Experimental: Inhibition of Human T-cell Proliferation
as §1, with “[…]” for “μl”, “[…]” for “μg/ml”, “PHA.” for “the T-cell specific mitogen phytohemagglutinine (PHA).”, “V” for “IV”
After 3 and 4 days, ^3 H-thymidine (5 Ci/mmol) was added to wells at a concentration of […]. Cells were pulse-labeled for the last 6 hours of the growth period. Cells were then harvested on to a 96 well filter plate using a cell harvester. After drying at 40° C. under vacuum for 20-30 minutes, 20 μl of scintillor were added and the radioactivity bound to the filters was counted. Values are expressed as percent controls (samples without test compounds).

[2] = Calcium tolerance test in mice; format: in vivo; conditions: daily subcutaneous, 4 consecutive days, dose giving zero weight gain during 5 day treatment period
Excerpt: Calcium tolerance test in mice
Profound changes in calcium homeostasis strongly affect the weight development of mice.
Mice (25-30 g body weight) received daily subcutaneous administrations of the compound for 4 consecutive days. Body weight was registered just before and at the end of a […] treatment period. The "highest tolerated dose" (HTD) is the dose which results in zero weight gain during this treatment period.

HaCaT cell line = assay: Inhibition of Keratinocyte Proliferation (3H-thymidine uptake, HaCaT cells); format: cell-based; conditions: Homo sapiens, 3H-thymidine incorporation, 6 days, read-out: IC50, concentration leading to 50% of control values

Row | SMILES | EC50 (HL-60 cells) [nM] | IC50 (Sebaceous cells; adult human facial sebaceous cells, vs vehicle treated control, listed as 1α,25-Dihydroxy-16,22S,23-triene-cholecalciferol) [nM] | IC50 [1] [nM] | IC50 (Human T-cell) [nM] | HTD, highest tolerated dose [2] [mg/kg] | IC50 (HaCaT cell line) [nM] | IC50 (Sebaceous cells; adult human facial sebaceous cells, vs vehicle treated control, listed as 1α,25-Dihydroxy-16,22R,23-triene-cholecalciferol) [nM] | IC50 (Sebaceous cells; Homo sapiens) [nM] | IC50 ([1]; T-cell) [nM] | IC50 (Human T-cell; T-cell) [nM]
1 | C=C1/C(=C\C=C2/CCC[C@]3(C)C([C@H](C)C=C=CC(C)(C)O)=CC[C@@H]23)C[C@@H](O)C[C@@H]1O [1,25-Dihydroxy-16,22S,23-triene-cholecalciferol] [listing 1 of 2 here] | 4.8 | 10 | 3 | 6 | 0.05 |  |  |  |  | 
2 | C=C1/C(=C\C=C2/CCC[C@]3(C)C([C@H](C)C=C=CC(C)(C)O)=CC[C@@H]23)C[C@@H](O)C[C@@H]1O [1,25-Dihydroxy-16,22S,23-triene-cholecalciferol] [listing 2 of 2 here] |  |  |  |  |  | 40 |  |  |  | 
3 | C=C1/C(=C\C=C2/CCC[C@]3(C)C([C@H](C)C=C=CC(C)(C)O)=CC[C@@H]23)C[C@@H](O)C[C@@H]1O [1,25-Dihydroxy-16,22R,23-triene-cholecalciferol] | 0.22 |  | 0.05 | 0.55 | 0.0025 |  | 1 |  |  | 
4 | C=C1/C(=C\C=C2/CCC[C@]3(C)[C@@H]([C@H](C)CCCC(C)(C)O)CC[C@@H]23)C[C@@H](O)C[C@@H]1O [1,25-Dihydroxy-cholecalciferol, reference compound] |  |  |  |  |  | 55 |  | 50 | 0.8 | 10

Reference: patent US5840718A, “22-epimeric-1,25-dihydroxy-16,22,23-triene-cholecalciferol” (Hoffmann-La Roche Inc., priority 1997, dated 1998)
